Experimental data as given in patent US8642012B2, “Methods of treatment using ammonia-scavenging drugs” (Hyperion Therapeutics, Inc., priority 2008, dated 2014).
Entries after “also recorded” stand apart in the source; their conditions may differ.

Experiments:
[1] = HPN-100 in subjects with cirrhosis and healthy adults: urinary PAGN excretion; type: in vivo, human; details: for Molar % of dose ammonia scavenged, Mean (SD): after dosing on day 15 (0-48 hours)
Procedure: (§1) To determine its pharmacokinetic (PK) and pharmacodynamic (PD) profile in patients with liver disease, clinical testing was conducted in which HPN-100 was administered orally as a single dose (100 mg/kg/day on day 1), and twice daily for 7 consecutive days (200 mg/kg/day on days 8 through 14, in two doses of 100 mg/kg per dose), to subjects with hepatic impairment with cirrhosis (Child-Pugh scores of A, B, or C) and to a gender and age-matched control group of healthy adults with normal hepatic function. On day 15, subjects received a single dose of HPN-100 (100 mg/kg). PK blood samples were taken pre-dose, at 15 and 30 minutes post-dose, and at 1, 1.5, 2, 3, 4, 6, 8, 12, and 24 hours post-dose on days 1, 8, and 15, and at 48 hours after dosing on days 1 and 15. On days 9-14, blood samples were taken pre-morning dose and at 2 hours post-morning dose. Urine was collected 0-4, 4-8, 8-12, and 12-24 hours post-dose on days 1, 8, and 15, and at 24-48 hours post-dose on days 1 and 15.

[2] = Overall findings across the clinical studies (conversion to urinary PAGN, tolerability); type: in vivo, human
Text: These are followed by a biological explanation for the findings.

[3] = Adult UCD patients, sodium PBA vs HPN-100: urinary PAGN excretion; type: in vivo, human; details: for PAGN excretion: equimolar rates (n=10)
Text: (§2) Subjects stayed on the 100% HPN-100 dose for one week and were then re-admitted to the study unit for repeated PK (Visit 11-1), ammonia and urine collections.

[4] = Adult UCD patients switched from sodium PBA to equimolar HPN-100: plasma PK at steady state; type: in vivo, human
Text: as §2

[5] = ADME study of radio labeled sodium PBA or HPN-100 in cynomolgous monkeys; type: in vivo; details: 600 mg/kg single dose
Text: These monkeys were chosen because, like humans (and unlike most other species), they metabolize PAA to PAGN and thus provide a useful model for testing prodrugs of PAA.

[6] = HPN-100 in subjects with cirrhosis (Child-Pugh A, B, C) and healthy adults: plasma PK; type: in vivo, human
Procedure: as §1

venous ammonia = assay: Adult UCD patients, sodium PBA vs HPN-100: venous ammonia pharmacodynamics; type: in vivo, human; details: for Venous ammonia Cmaxss, Mean / Venous ammonia Cmaxss, Median / Venous ammonia TN-AUC, Mean / Venous ammonia TN-AUC, Median: N 10 UCD subjects; for Venous ammonia Cmaxss, Mean / Venous ammonia Cmaxss, Median / Venous ammonia TN-AUC, Mean / Venous ammonia TN-AUC, Median / Venous ammonia Cmaxss / Venous ammonia TN-AUC: seven days of dosing, steady state; for TN-AUC (NH3): plasma ammonia; for NH3: Total AUC / NH3 exposure: DAY (hours 6-12) / NH3 exposure: NIGHT (hours 12-24) / NH3 Cmax: equimolar rates (n=10); for NH3 Cmax: in µmol/L
Text: as §2

[7] = Adult UCD patients, sodium PBA vs HPN-100: safety and patient preference; type: in vivo, human; details: UCD patients (n=10)
Text: as §2

[8] = individual UCD patients; Brusilow 1991, Brusilow and Finkelstien 1993; cited from earlier work
[9] = healthy adults; single dose; urine collected to 24 hours
[10] = Single dose PK in healthy adults: plasma PBA, PAA, PAGN; type: in vivo, human; details: healthy volunteers, single dose 3 g/m^2/day PBA mole equivalent
Procedure: To assess its pharmacokinetic (PK) and pharmacodynamic (PD) profile, HPN-100 was administered as a single dose to 24 healthy adults. Pharmacokinetic samples were taken pre-dose and at 15 and 30 minutes post-dose and 1, 1.5, 2, 3, 4, 6, 8, 12, 24, and 48 hours post-dose.
Plasma levels of PAA, PBA, and PAGN were monitored periodically for 12-24 hours by known methods.

[11] = PK/PD modeling (NONMEM VI) of plasma and urinary metabolite data from the clinical studies; set-up: species or system human
Text: Since hepatocytes and possibly enterocytes contain the enzymes necessary for conversion of PBA to PAA and conversion of PAA to PAGN and since glutamine is present in the splanchnic as well as the systemic circulation, it is likely that PBA can be converted to PAGN prior to reaching the systemic circulation (i.e. “pre-systemically”) and that this PBA is fully effective with respect to ammonia scavenging (FIG. 6); i.e. fully active. To verify this possibility, PK/PD modeling using NONMEM VI (Icon, Ellicot City, Md.) was carried out on plasma and urinary metabolite data (over 5000 data points) from the clinical studies described above involving healthy adults, subjects with cirrhosis and UCD subjects.

[12] = UCD patients, equimolar dosages
[13] = UCD patients, not statistically significant
[14] = plasma, UCD subjects, multiple dose, PBA mole equivalent
[15] = steady state, UCD patients N = 10, arithmetic mean

In the case of O=C(CCCc1ccccc1)OCC(COC(=O)CCCc1ccccc1)OC(=O)CCCc1ccccc1 [HPN-100, glyceryl tri-[4-phenylbutyrate]], the “Effect of hepatic impairment on ammonia-scavenging ability” value ([1]; Child-Pugh groups vs healthy volunteers) is reported as “no significant effect”, the “Molar % of dose ammonia scavenged, Mean (SD)” value (“Molar % … (SD)” for short) ([1]; Child-Pugh A (8)) is reported as 159.2 (60.9) Molar % and the “Molar % … (SD)” value ([1]; Child-Pugh B (8)) is reported as 116.3 (58.3) Molar %. For the same compound, the “Molar % … (SD)” value ([1]; Child-Pugh C (8)) was 169.9 (130.1) Molar %, the “Molar % … (SD)” value ([1]; Healthy Adults (8)) was 137.2 (43.9) Molar % and the Indications of toxicity ([2]; at doses equimolar to the approved PBA dosage of 20 g/day) was “no indications of toxicity”. The “Dietary protein whose waste nitrogen is eliminated per gram of drug per day” value ([2]; given 60-75% conversion rate) was roughly 1.3 grams, the “Effect on creatinine levels” value ([2]; human, in vivo) was “little to no effect” and the “Relationship between dose and PAGN output” value ([2]; up to doses of 17.4 mL) was “linear relationship”. For the same compound, the PAGN excretion [3] was “Comparable”, the “Intact HPN-100 in blood samples” value ([4]; UCD patients, all blood samples) was “either not detectable or below the limits of quantitation” and the “Intact HPN-100 in systemic circulation or in excretions” value [5] was “essentially no HPN-100”. For the same compound, the “PK and PD in fed versus fasted state” value ([6]; after fasting (day 1) vs with a meal (day 8)) was “no PK or PD differences; also recorded: indistinguishable”, the “Alternative metabolites PAG, PBG and PBGN in plasma” value ([6]; all plasma samples, all subject groups) was “below the limit of quantification” and the “Venous ammonia Cmaxss, Mean” value (venous ammonia) was 56.3 µmol/L. For the same compound, the “Venous ammonia Cmaxss, Median” value (venous ammonia) was 60.0 µmol/L, the “Venous ammonia TN-AUC, Mean” value (venous ammonia) was 26.1 µmol/L and the “Venous ammonia TN-AUC, Median” value (venous ammonia) was 22.3 µmol/L. For the same compound, the “Venous ammonia Cmaxss” value (venous ammonia; Subject 1001) was 63.0 µmol/L, the “Venous ammonia TN-AUC” value (venous ammonia; Subject 1001) was 19.8 µmol/L and the “Venous ammonia Cmaxss” value (venous ammonia; Subject 1002) was 31.0 µmol/L. For the same compound, the “Venous ammonia TN-AUC” value (venous ammonia; Subject 1002) was 19.3 µmol/L, the “Venous ammonia Cmaxss” value (venous ammonia; Subject 1004) was 106 µmol/L and the “Venous ammonia TN-AUC” value (venous ammonia; Subject 1004) was 35.1 µmol/L. The “Venous ammonia Cmaxss” value (venous ammonia; Subject 1006) was 13.0 µmol/L, the “Venous ammonia TN-AUC” value (venous ammonia; Subject 1006) was 8.30 µmol/L and the “Venous ammonia Cmaxss” value (venous ammonia; Subject 2001) was 33.0 µmol/L. The “Venous ammonia TN-AUC” value (venous ammonia; Subject 2001) was 22.7 µmol/L, the “Venous ammonia Cmaxss” value (venous ammonia; Subject 2003) was 74.0 µmol/L and the “Venous ammonia TN-AUC” value (venous ammonia; Subject 2003) was 21.1 µmol/L. For the same compound, the “Venous ammonia Cmaxss” value (venous ammonia; Subject 3002) was 36.0 µmol/L, the “Venous ammonia TN-AUC” value (venous ammonia; Subject 3002) was 21.9 µmol/L and the “Venous ammonia Cmaxss” value (venous ammonia; Subject 3004) was 75.0 µmol/L. For the same compound, the “Venous ammonia TN-AUC” value (venous ammonia; Subject 3004) was 38.4 µmol/L, the “Venous ammonia Cmaxss” value (venous ammonia; Subject 5001) was 57.0 µmol/L and the “Venous ammonia TN-AUC” value (venous ammonia; Subject 5001) was 35.5 µmol/L. The “Venous ammonia Cmaxss” value (venous ammonia; Subject 5002) was 75.2 µmol/L, the “Venous ammonia TN-AUC” value (venous ammonia; Subject 5002) was 39.1 µmol/L and the “Mean percentage of normal ammonia values” (venous ammonia; UCD patients) was 83%. For the same compound, the “Peak venous ammonia concentration” value (venous ammonia; UCD patients) was 56.3 µmol/L, the “Venous ammonia mean TN-AUC” value (venous ammonia; UCD patients) was 26.1 µmol/L and the “Ammonia level reached in patients above about 40 μmol/L on sodium PBA” value (venous ammonia; UCD patients, equimolar dosages, FIG. 12) was “below 40 μmol/L”. The TN-AUC (NH3) (venous ammonia; [12]) was 26.1 µM, the “NH3: Total AUC” value (venous ammonia; UCD patients) was 26.1 ± 10.3 and the “NH3 exposure: DAY (hours 6-12)” value (venous ammonia; UCD patients) was 32.9. For the same compound, the “NH3 exposure: NIGHT (hours 12-24)” value (venous ammonia; UCD patients) was 21.3, the “NH3 Cmax” value (venous ammonia; UCD patients) was 56.3 ± 27.9 and the “Peak venous ammonia, lowering versus sodium PBA” value (venous ammonia; [13]) was roughly 29%. The “Venous ammonia TN-AUC, lowering versus sodium PBA” value (venous ammonia; [13]) was roughly 31%, the “Adverse effects, number of subjects reporting” value [7] was 5 and the “Adverse effects, total number reported” value [7] was 15.

For O=C([O-])CCCc1ccccc1.[Na+] [Sodium PBA, sodium phenylbutyrate], the “Fraction excreted in the urine as PAGN” value [8] is given as 80-90%, the “Urinary excretion of PAGN” value [9] is given as 4905 ± 1414 mg and the “Conversion into urinary PAGN, overall efficiency on average” value ([2]; oral, typical/average across clinical studies) is given as 60-75%. The “Urine collection interval with highest PAGN output” value ([3]; 24 hour pattern) was 6 to 12 h, the “Conversion into urinary PAGN” value ([3]; average) was roughly 60% and the PAGN excretion [3] was “Comparable”. The “Mean PAGN amount excreted, 0-6 hours” value ([3]; urine) was 2,452,838 μg, the “Mean PAGN amount excreted, 0-12 hours” value ([3]; urine) was 4,859,121 μg and the “Mean PAGN amount excreted, 12-24 hours” value ([3]; urine) was 4,645,447 μg. For the same compound, the “AUC (PBA)” value [4, 12] was 739 (49) μg-hr/mL, the “PBA AUC24” value [4, 14] was 739.0 µg·h/mL and the “PBA Cmax” value [4, 14] was 141.0 µg/mL. The “PBA Tmax” value [4, 14] was 126 min, the “PAA in plasma Cmaxss” value [4, 15] was 53.0 µg/mL and the “PAA in plasma Cminss” value [4, 15] was 3.56 µg/mL. The “PAGN in plasma Cmaxss” value [4, 15] was 83.3 µg/mL, the “PAGN in plasma Cminss” value [4, 15] was 16.8 µg/mL and the “PBA in plasma AUC0-24” value [4, 15] was 739 µg·h/mL. For the same compound, the “PBA in plasma Cmaxss” value [4, 15] was 141 µg/mL, the “PBA in plasma Cminss” value [4, 15] was 0.588 µg/mL and the “PBA AUC24” value [10] was 542.6 µg·h/mL. For the same compound, the “PBA Cmax” value [10] was 221.0 µg/mL, the “PBA Tmax” value [10] was 54 min and the “PBA T½” value [10] was 42 min. For the same compound, the Absorption rate constant [11] was 1.34 h⁻¹, the “Fraction of PBA converted pre-systemically (to PAA and PAGN)” value [11] was 1% and the “Unchanged PBA as share of the administered dosage” value ([5]; excreted) was 48%. The “PAGN as share of the administered radio labeled dose” value ([5]; urine) was 23%, the “Venous ammonia Cmaxss, Mean” value (venous ammonia) was 79.1 µmol/L and the “Venous ammonia Cmaxss, Median” value (venous ammonia) was 83.6 µmol/L. The “Venous ammonia TN-AUC, Mean” value (venous ammonia) was 38.4 µmol/L, the “Venous ammonia TN-AUC, Median” value (venous ammonia) was 36.8 µmol/L and the “Venous ammonia Cmaxss” value (venous ammonia; Subject 1001) was 29.0 µmol/L. For the same compound, the “Venous ammonia TN-AUC” value (venous ammonia; Subject 1001) was 16.47 µmol/L, the “Venous ammonia Cmaxss” value (venous ammonia; Subject 1002) was 31.0 µmol/L and the “Venous ammonia TN-AUC” value (venous ammonia; Subject 1002) was 20.9 µmol/L. For the same compound, the “Venous ammonia Cmaxss” value (venous ammonia; Subject 1004) was 85.0 µmol/L, the “Venous ammonia TN-AUC” value (venous ammonia; Subject 1004) was 46.8 µmol/L and the “Venous ammonia Cmaxss” value (venous ammonia; Subject 1006) was 150 µmol/L. For the same compound, the “Venous ammonia TN-AUC” value (venous ammonia; Subject 1006) was 71.5 µmol/L, the “Venous ammonia Cmaxss” value (venous ammonia; Subject 2001) was 88.0 µmol/L and the “Venous ammonia TN-AUC” value (venous ammonia; Subject 2001) was 52.1 µmol/L. The “Venous ammonia Cmaxss” value (venous ammonia; Subject 2003) was 31.0 µmol/L, the “Venous ammonia TN-AUC” value (venous ammonia; Subject 2003) was 17.5 µmol/L and the “Venous ammonia Cmaxss” value (venous ammonia; Subject 3002) was 108 µmol/L. For the same compound, the “Venous ammonia TN-AUC” value (venous ammonia; Subject 3002) was 22.3 µmol/L, the “Venous ammonia Cmaxss” value (venous ammonia; Subject 3004) was 115 µmol/L and the “Venous ammonia TN-AUC” value (venous ammonia; Subject 3004) was 62.9 µmol/L. The “Venous ammonia Cmaxss” value (venous ammonia; Subject 5001) was 82.2 µmol/L, the “Venous ammonia TN-AUC” value (venous ammonia; Subject 5001) was 35.8 µmol/L and the “Venous ammonia Cmaxss” value (venous ammonia; Subject 5002) was 72.2 µmol/L. The “Venous ammonia TN-AUC” value (venous ammonia; Subject 5002) was 37.7 µmol/L, the “Mean percentage of normal ammonia values” (venous ammonia; UCD patients) was 58% and the “Peak venous ammonia concentration” value (venous ammonia; UCD patients) was 79.1 µmol/L. The “Venous ammonia mean TN-AUC” value (venous ammonia; UCD patients) was 38.4 µmol/L, the TN-AUC (NH3) (venous ammonia; [12]) was 38.4 µM and the “NH3: Total AUC” value (venous ammonia; UCD patients) was 38.4 ± 19.6. The “NH3 exposure: DAY (hours 6-12)” value (venous ammonia; UCD patients) was 37.1, the “NH3 exposure: NIGHT (hours 12-24)” value (venous ammonia; UCD patients) was 36.3 and the “NH3 Cmax” value (venous ammonia; UCD patients) was 79.1 ± 40.1. The “Adverse effects, number of subjects reporting” value [7] was 7, the “Adverse effects, total number reported” value [7] was 21 and the Serious adverse effects [7] was 2 (symptomatic. For the same compound, the Serious adverse effects ([7]; listed as PBA) was “two subjects”.
